Entries after “also recorded” stand apart in the source; their conditions may differ.
Experiments:
[1] = Nebulized heparin in patients with pulmonary infection or lung injury (Example 6); type: in vivo
Description: Nebulized heparin also affects various physiologic parameters and other outcomes, in particular during pulmonary infection and inhalation trauma.
Reduction of pulmonary coagulopathy at dosages ≥400,000 U/day heparin is observed.
A single dosage of nebulized heparin prior to cardiopulmonary bypass surgery decreases atelectasis and improves CO2 elimination directly after the operation. Nebulized heparin increases the number of ventilator-free days following administration.

[2] = tested on: virus that contain PBSC sequences; settings: in vitro; cited from earlier work
[3] = tested on: SARS-COV-2; test: microbe, parasite or virus in culture; type: cell-based; settings: for SARS-CoV-2 infectivity of VERO cells: at concentrations which were not cytotoxic
[4] = compared with controls
Description: Inhalation injury is a major cause of morbidity and mortality in patients with burns. Presence of airways injury adds to the need of fluid supplementation, increases risk of pulmonary complications. Due to many mechanisms involved in pathophysiology the treatment is complex. Among them the formation of fibrin casts inside airways constitutes a prominent element. The material residing in tracheobronchial tree causes ventilation-perfusion mismatch, complicates mechanical ventilation, provides a medium for bacterial growth. Inhaled anticoagulation regimens employing heparin in management of inhalation injury are tested. Simultaneously safety, especially in connection with possible bleeding risk, is measured.
Data are collected in patients receiving nebulized heparin and in historical controls. Data is analyzed separately with 1) all subjects included and 2) with subjects who died/were discharged on the ventilator excluded.

[5] = Phase 1 clinical study of nebulized heparin in volunteers (Example 4)
Procedure: This example describes the safety and efficacy of nebulized heparin and NAC in normal subjects. A Phase 1 clinical study of nebulized heparin is conducted to investigate the safety of increasing doses of a well-defined lower respiratory tract (LRT) dose of inhaled heparin with regard to pulmonary function and coagulation. Ten volunteers inhale heparin from Sidestream jet nebulizers loaded with 100,000, 200,000, 300,000 or 400,000 International Units (ID) of heparin.

[6] = Nebulized anticoagulants in preclinical models for lung injury; type: in vivo
Description: Nebulized anticoagulants attenuate pulmonary coagulopathy in preclinical studies using various models for lung injury. Effects on inflammation are less consistent.

[7] = tested on: VERO cells; test: Non-virus related cytotoxicity in VERO cells by light microscopy; type: cell-based; settings: at the inhibiting concentrations (LMWH 125 μM, N-acetylcysteine 25 mM)
Procedure: For experiments in which infectivity was being tested, either VERO cells in media or SARS-COV-2 viral particles were incubated with potential inhibitors for one hour. Then viral particles were added to VERO cells and incubation continued for up to seven days. Cytotoxicity and viral-induced cytopathological effects were examined by light microscopy.
In order to test if AT-H201 had antiviral activity against SARS-COV-2 the standard VERO cells assay was performed. Test compounds were incubated either with the virus, to simulate antibody-like surface binding, or with the cells, to simulate either cell surface changes or to act intracellularly. Serial dilutions were conducted and the cytopathic effect (CPE) was observed by microscopy. Non-virus related cytotoxicity, if present was also noted.

[8] = aqueous solution at physiologic pH; cited from earlier work
[9] = tested on: ciliary motility; settings: cited from earlier work
[10] = nebulized, presence of pulmonary infection or lung injury

heparin
bleeding incidences ([1]; at dosages ≥100,000 U): without affecting
dosages at which reduction of pulmonary coagulopathy is observed ([1]; nebulized): ≥ 400,000 U/day
dosages at which systemic coagulation is affected ([1]; nebulized): ≥ 100,000 U
mortality ([1]; nebulized): does not increase
number of ventilator-free days ([1]; nebulized): increases
physiological parameters, such as arterial oxygenation or pulmonary compliance ([1]; nebulized): does not affect
systemic bleeding ([1]; nebulized): does not cause; also recorded: does not result in differences
systemic coagulation ([1]; nebulized): affects
anticoagulant effect in the lungs [1, 10]: has an anticoagulant effect
pulmonary inflammation [1, 10]: inhibits
atelectasis ([1]; single nebulized dosage prior to cardiopulmonary bypass surgery): decreases
CO2 elimination ([1]; single nebulized dosage prior to cardiopulmonary bypass surgery, directly after the operation): improves
infectivity of virus that contain PBSC sequences [2]: blocks infectivity
SARS-CoV-2 infectivity of VERO cells [3]: inhibited
28-day mortality [4]: no differences
hospitalization length [4]: no differences
lung injury score during the first 7 days post injury [4]: no differences
ventilator-associated pneumonia rate [4]: no differences
Peak anti-Xa activity ([5]; 6 h after inhalation of 400,000 ID heparin): 0.113 ID/mL
APTT maximum ([5]; 6 h after inhalation of 400,000 ID heparin (p=0.05)): 1.03
anti-Xa compared to baseline values ([5]; after 200,000, 300,000, and 400,000 ID heparin): increases
safety of inhalation ([5]; delivery of 32,000 IU to the lower respiratory tract): can safely be inhaled
area under the curve of the anti-Xa activity ([5]; inhaled, 100,000-400,000 IU): increase with increasing doses
pulmonary function ([5]; inhaled, 100,000-400,000 IU loaded in nebulizer): did not affect
systemic coagulation [6]: reduce

enoxaparin [LMWH]
Cytotoxicity [7]: not seen
inhibition of SARS-COV-2 infectivity ([3]; at 125 μM, SARS-COV-2 incubated with compound before VERO cell exposure): complete inhibition
inhibition of viral cytopathic effects / SARS-COV-2 infectivity ([3]; at nanomolar concentrations, incubated with the virus or with the cells): completely inhibiting; also recorded: nanomolar efficacy
inhibition of infectivity ([3]; either incubated with the virus or incubated with the cells): effective

NCCN(CCN)/[N+]([O-])=N/O [diethylenetriamine/NO]
rate of NO release [8]: approximately 20 hours

danaparoid
systemic coagulation [6]: reduce

CC(=O)N[C@@H](CS)C(=O)O [NAC, N-acetylcysteine]
Cytotoxicity [7]: not seen
inhibition at 25000 µM ([3]; Severe acute respiratory syndrome coronavirus 2, Vero, at 25 mM, incubation with cells, read-out: Inhibition of Virus Infection): 100%
inhibiting viral entry ([3]; at 25 mM): effective
inhibition of infectivity ([3]; at 25 mM, incubated with cells): completely inhibit
SARS-CoV-2 infectivity of VERO cells [3]: inhibited
inhibition of infectivity ([3]; incubated with SARS-COV-2 (virus)): did not inhibit

CCN(CCO)CCCC(C)Nc1ccnc2cc(Cl)ccc12 (centres unmarked) [Hydroxychloroquine, hydroxychloroquine]
inhibition at 16 µM ([3]; Severe acute respiratory syndrome coronavirus 2, Vero, at 16 μM, incubation with cells, read-out: Inhibition of Virus Infection): 100%

2-alkyl-4-hydroxyquinolines [pyo compound]
concentration producing ciliostasis / inhibiting ciliary motility [9]: 50 µg/mL

CCN(CC)/[N+]([O-])=N/O.CCNCC [diethylamine/NO]
rate of NO release [8]: < 3 min

rhamnolipid
effect of limited exposure of tracheal explants ([9]; associated with altered ciliary membranes): ciliostasis

— US12576103B2 (priority 2020, dated 2026)
